Results published in patent US6479435B1, “Diaryl ethers and processes for their preparation and herbicidal and desiccant compositions containing them” (ISK Americas Incorporated, priority 1997, dated 2002).

Key:
Type in all cases: in vivo
[1] = system: Johnsongrass (Sorghum halepense, SORHA); experiment: Pre-emerge greenhouse herbicide test, phytotoxicity rating; conditions: 14 days after application, rating scale 0-100
Summary of the method: (§1)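 Seeds sown in sandy loam one day before track-sprayer application of acetone solutions at 125–1000 g ai/ha (187 l/ha), then surface-watered to incorporate and bottom-watered. Injury scored visually at 14 days on a 0–100 scale (0 no damage, 100 complete death).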

[2] = system: barnyardgrass (Echinochloa crusgalli, ECHCG); experiment: as above; conditions: 14 days after application, rating scale 0-100
Summary of the method: as §1

[3] = system: common ragweed (Ambrosia artemisiifolia L., AMBEL); experiment: as above; conditions: 14 days after application, rating scale 0-100
Summary of the method: as §1

[4] = system: green foxtail (Setaria viridis, SETVI); experiment: as above; conditions: 14 days after application, rating scale 0-100
Summary of the method: as §1

[5] = system: ivyleaf morningglory (Ipomoea hederacea, IPOHE); experiment: as above; conditions: 14 days after application, rating scale 0-100
Summary of the method: as §1

[6] = system: lambsquarters (Chenopodium album, CHEAL); experiment: as above; conditions: 14 days after application, rating scale 0-100
Summary of the method: as §1

[7] = system: large crabgrass (Digitaria sanguinalis, DIGSA); experiment: as above; conditions: 14 days after application, rating scale 0-100
Summary of the method: as §1

[8] = system: redroot pigweed (Amaranthus retroflexus, AMARE); experiment: as above; conditions: 14 days after application, rating scale 0-100
Summary of the method: as §1

[9] = system: sicklepod (Cassia obtusifolia, CASOB); experiment: as above; conditions: 14 days after application, rating scale 0-100
Summary of the method: as §1

[10] = system: velvetleaf (Abutilon theophrasti, ABUTH); experiment: as above; conditions: 14 days after application, rating scale 0-100
Summary of the method: as §1

[11] = system: field corn (Zea mays L., var. Dekalb 535, CORN); experiment: Pre-emerge greenhouse test, crop damage rating; conditions: 14 days after application, rating scale 0-100
Summary of the method: as §1

[12] = system: upland rice (Oryza sp., var.Tebonnet, RICE); experiment: Pre-emerge greenhouse test, crop damage rating; conditions: 14 days after application, rating scale 0-100
Summary of the method: as §1

[13] = system: soybean (Glycine max L., var. Pella 86, SOY); experiment: Pre-emerge greenhouse test, crop damage rating; conditions: 14 days after application, rating scale 0-100
Summary of the method: as §1

[14] = system: common ragweed (Ambrosia artemisiifolia L., AMBEL); experiment: Post-emerge greenhouse herbicide test, phytotoxicity rating; conditions: 14 days after application
Summary of the method: (§2)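 Plants at the 2-3 leaf stage, sown 8-21 days earlier, were track-sprayed post-emergence with compound in acetone plus 0.25% v/v non-ionic surfactant at 63-1000 g ai/ha (187 l/ha). Damage was rated at 14 days on a 0-100 scale (0 none, 100 all plants dead), for both crop injury and weed control.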

[15] = system: Johnsongrass (Sorghum halepense, SORHA); experiment: as above; conditions: 14 days after application
Summary of the method: as §2

[16] = system: barnyardgrass (Echinochloa crusgalli, ECHCG); experiment: as above; conditions: 14 days after application
Summary of the method: as §2

[17] = system: green foxtail (Setaria viridis, SETVI); experiment: as above; conditions: 14 days after application
Summary of the method: as §2

[18] = system: ivyleaf morningglory (Ipomoea hederacea, IPOHE); experiment: as above; conditions: 14 days after application
Summary of the method: as §2

[19] = system: lambsquarters (Chenopodium album, CHEAL); experiment: as above; conditions: 14 days after application
Summary of the method: as §2

[20] = system: large crabgrass (Digitaria sanguinalis, DIGSA); experiment: as above; conditions: 14 days after application
Summary of the method: as §2

[21] = system: redroot pigweed (Amaranthus retroflexus, AMARE); experiment: as above; conditions: 14 days after application
Summary of the method: as §2

[22] = system: sicklepod (Cassia obtusifolia, CASOB); experiment: as above; conditions: 14 days after application
Summary of the method: as §2

[23] = system: velvetleaf (Abutilon theophrasti, ABUTH); experiment: as above; conditions: 14 days after application
Summary of the method: as §2

[24] = system: field corn (Zea mays L., var. Dekalb 535, CORN); experiment: Post-emerge greenhouse test, crop damage rating; conditions: 14 days after application
Summary of the method: as §2

[25] = system: upland rice (Oryza sp., var.Tebonnet, RICE); experiment: Post-emerge greenhouse test, crop damage rating; conditions: 14 days after application
Summary of the method: as §2

[26] = system: soybean (Glycine max L., var. Pella 86, SOY); experiment: Post-emerge greenhouse test, crop damage rating; conditions: 14 days after application
Summary of the method: as §2

Nc1ccc(Oc2cc(-n3c(=O)n4n(c3=S)CCCC4)c(F)cc2Cl)cc1 [Compound 8-9]
phytotoxicity rating SORHA ([1]; 125 g ai/ha): 0
phytotoxicity rating SORHA ([1]; 500 g ai/ha): 0
phytotoxicity rating ECHCG ([2]; 125 g ai/ha): 0
phytotoxicity rating ECHCG ([2]; 500 g ai/ha): 0
phytotoxicity rating AMBEL ([3]; 125 g ai/ha): 30
phytotoxicity rating AMBEL ([3]; 500 g ai/ha): 30
phytotoxicity rating SETVI ([4]; 125 g ai/ha): 0
phytotoxicity rating SETVI ([4]; 500 g ai/ha): 30
phytotoxicity rating IPOHE ([5]; 125 g ai/ha): 0
phytotoxicity rating IPOHE ([5]; 500 g ai/ha): 10
phytotoxicity rating CHEAL ([6]; 125 g ai/ha): 70
phytotoxicity rating CHEAL ([6]; 500 g ai/ha): 100
phytotoxicity rating DIGSA ([7]; 125 g ai/ha): 0
phytotoxicity rating DIGSA ([7]; 500 g ai/ha): 0
phytotoxicity rating AMARE ([8]; 125 g ai/ha): 100
phytotoxicity rating AMARE ([8]; 500 g ai/ha): 95
phytotoxicity rating CASOB ([9]; 125 g ai/ha): 0
phytotoxicity rating CASOB ([9]; 500 g ai/ha): 40
phytotoxicity rating ABUTH ([10]; 125 g ai/ha): 60
phytotoxicity rating ABUTH ([10]; 500 g ai/ha): 100
crop damage rating CORN ([11]; 125 g ai/ha): 0
crop damage rating CORN ([11]; 500 g ai/ha): 0
crop damage rating RICE ([12]; 125 g ai/ha): 0
crop damage rating RICE ([12]; 500 g ai/ha): 0
crop damage rating SOY ([13]; 125 g ai/ha): 0
crop damage rating SOY ([13]; 500 g ai/ha): 0
AMBEL phytotoxicity rating (0-100) ([14]; 63 g al/ha): 30
AMBEL phytotoxicity rating (0-100) ([14]; 500 g al/ha): 80
SORHA phytotoxicity rating (0-100) ([15]; 63 g al/ha): 0
SORHA phytotoxicity rating (0-100) ([15]; 500 g al/ha): 30
ECHCG phytotoxicity rating (0-100) ([16]; 63 g al/ha): 0
ECHCG phytotoxicity rating (0-100) ([16]; 500 g al/ha): 0
SETVI phytotoxicity rating (0-100) ([17]; 63 g al/ha): 0
SETVI phytotoxicity rating (0-100) ([17]; 500 g al/ha): 30
IPOHE phytotoxicity rating (0-100) ([18]; 63 g al/ha): 40
IPOHE phytotoxicity rating (0-100) ([18]; 500 g al/ha): 100
CHEAL phytotoxicity rating (0-100) ([19]; 63 g al/ha): 60
CHEAL phytotoxicity rating (0-100) ([19]; 500 g al/ha): 95
DIGSA phytotoxicity rating (0-100) ([20]; 63 g al/ha): 0
DIGSA phytotoxicity rating (0-100) ([20]; 500 g al/ha): 10
AMARE phytotoxicity rating (0-100) ([21]; 63 g al/ha): 90
AMARE phytotoxicity rating (0-100) ([21]; 500 g al/ha): 100
CASOB phytotoxicity rating (0-100) ([22]; 63 g al/ha): 0
CASOB phytotoxicity rating (0-100) ([22]; 500 g al/ha): 100
ABUTH phytotoxicity rating (0-100) ([23]; 63 g al/ha): 50
ABUTH phytotoxicity rating (0-100) ([23]; 500 g al/ha): 100
CORN crop damage rating (0-100) ([24]; 63 g al/ha): 0
CORN crop damage rating (0-100) ([24]; 500 g al/ha): 10
RICE crop damage rating (0-100) ([25]; 63 g al/ha): 0
RICE crop damage rating (0-100) ([25]; 500 g al/ha): 0
SOY crop damage rating (0-100) ([26]; 63 g al/ha): 20
SOY crop damage rating (0-100) ([26]; 500 g al/ha): 70

Cn1c(C(F)(F)F)nc(-c2cc(Oc3ncccn3)c(Cl)cc2F)c1Cl [Compound 2-3]
phytotoxicity rating SORHA ([1]; 125 g ai/ha): 100
phytotoxicity rating SORHA ([1]; 500 g ai/ha): 100
phytotoxicity rating ECHCG ([2]; 125 g ai/ha): 80
phytotoxicity rating ECHCG ([2]; 500 g ai/ha): 100
phytotoxicity rating AMBEL ([3]; 125 g ai/ha): 35
phytotoxicity rating AMBEL ([3]; 500 g ai/ha): 90
phytotoxicity rating SETVI ([4]; 125 g ai/ha): 95
phytotoxicity rating SETVI ([4]; 500 g ai/ha): 100
phytotoxicity rating IPOHE ([5]; 125 g ai/ha): 20
phytotoxicity rating IPOHE ([5]; 500 g ai/ha): 100
phytotoxicity rating CHEAL ([6]; 125 g ai/ha): 100
phytotoxicity rating CHEAL ([6]; 500 g ai/ha): 100
phytotoxicity rating DIGSA ([7]; 125 g ai/ha): 100
phytotoxicity rating DIGSA ([7]; 500 g ai/ha): 100
phytotoxicity rating AMARE ([8]; 125 g ai/ha): 100
phytotoxicity rating AMARE ([8]; 500 g ai/ha): 100
phytotoxicity rating CASOB ([9]; 125 g ai/ha): 30
phytotoxicity rating CASOB ([9]; 500 g ai/ha): 100
phytotoxicity rating ABUTH ([10]; 125 g ai/ha): 100
phytotoxicity rating ABUTH ([10]; 500 g ai/ha): 100
crop damage rating CORN ([11]; 125 g ai/ha): 25
crop damage rating CORN ([11]; 500 g ai/ha): 35
crop damage rating RICE ([12]; 125 g ai/ha): 30
crop damage rating RICE ([12]; 500 g ai/ha): 55
crop damage rating SOY ([13]; 125 g ai/ha): 50
crop damage rating SOY ([13]; 500 g ai/ha): 25
AMBEL phytotoxicity rating (0-100) ([14]; 63 g al/ha): 30
AMBEL phytotoxicity rating (0-100) ([14]; 500 g al/ha): 60
SORHA phytotoxicity rating (0-100) ([15]; 63 g al/ha): 80
SORHA phytotoxicity rating (0-100) ([15]; 500 g al/ha): 95
ECHCG phytotoxicity rating (0-100) ([16]; 63 g al/ha): 30
ECHCG phytotoxicity rating (0-100) ([16]; 500 g al/ha): 95
SETVI phytotoxicity rating (0-100) ([17]; 63 g al/ha): 100
SETVI phytotoxicity rating (0-100) ([17]; 500 g al/ha): 100
IPOHE phytotoxicity rating (0-100) ([18]; 63 g al/ha): 100
IPOHE phytotoxicity rating (0-100) ([18]; 500 g al/ha): 100
CHEAL phytotoxicity rating (0-100) ([19]; 63 g al/ha): 90
CHEAL phytotoxicity rating (0-100) ([19]; 500 g al/ha): 100
DIGSA phytotoxicity rating (0-100) ([20]; 63 g al/ha): 0
DIGSA phytotoxicity rating (0-100) ([20]; 500 g al/ha): 80
AMARE phytotoxicity rating (0-100) ([21]; 63 g al/ha): 100
AMARE phytotoxicity rating (0-100) ([21]; 500 g al/ha): 100
CASOB phytotoxicity rating (0-100) ([22]; 63 g al/ha): 30
CASOB phytotoxicity rating (0-100) ([22]; 500 g al/ha): 70
ABUTH phytotoxicity rating (0-100) ([23]; 63 g al/ha): 95
ABUTH phytotoxicity rating (0-100) ([23]; 500 g al/ha): 100
CORN crop damage rating (0-100) ([24]; 63 g al/ha): 30
CORN crop damage rating (0-100) ([24]; 500 g al/ha): 80
RICE crop damage rating (0-100) ([25]; 63 g al/ha): 40
RICE crop damage rating (0-100) ([25]; 500 g al/ha): 90
SOY crop damage rating (0-100) ([26]; 63 g al/ha): 90
SOY crop damage rating (0-100) ([26]; 500 g al/ha): 90
